Measurements taken from patent publication US10550111B2, “Pyrimidine urea compound containing isoxazolines and use thereof” (SHENYANG SINOCHEM AGROCHEMICALS R&D CO., LTD, priority 2014, dated 2020).

How the values were obtained:
Format in all cases: in vivo
[1] = tested on: Abutilon theophrasti Medic.; assay: Bioassay of herbicidal activity in greenhouse (further screening)
How it was run: (§1)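 Visual growth inhibition rating (0–100%; 100 = weeds dead or not emerged) after track-sprayer application of compounds formulated as emulsifiable concentrates. Sprays given 24 h post-sowing (pre-emergence) or at 2–3-leaf (grasses) / 2–4-leaf (broad-leaves) stage, greenhouse-grown plants.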

[2] = tested on: Setaria glauca (L.) Beauv.; assay: as above
How it was run: as §1

Zinnia elegans Jacq. = assay: as above
How it was run: as §1

[3] = tested on: Echinochloa crus-galli (L.) Beauv.; assay: as above
How it was run: as §1

[4] = tested on: broad-leaf weeds and grass weeds; assay: General screening of herbicidal activity in greenhouse; conditions: 1000 g a.i./hm^2;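 also: 0 means no visible effect and 100 means all weeds dead or not emerged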
How it was run: as §1

CCOC(=O)C1(C)CC(c2cc(-n3c(=O)cc(C(F)(F)F)n(C)c3=O)ccc2Cl)=NO1 (stereo not shown) [Compound 284]
Growth inhibition rate, Post-emergence treatment, Abutilon theophrasti Medic. ([1]; dose 37.5 g a.i./hm^2): 95% | Growth inhibition rate, Post-emergence treatment, Abutilon theophrasti Medic. ([1]; dose 150 g a.i./hm^2): 100% | Growth inhibition rate, Post-emergence treatment, Abutilon theophrasti Medic. ([1]; dose 600 g a.i./hm^2): 100% | Growth inhibition rate, Pre-emergence treatment, Abutilon theophrasti Medic. ([1]; dose 37.5 g a.i./hm^2): 0% | Growth inhibition rate, Pre-emergence treatment, Abutilon theophrasti Medic. ([1]; dose 150 g a.i./hm^2): 50% | Growth inhibition rate, Pre-emergence treatment, Abutilon theophrasti Medic. ([1]; dose 600 g a.i./hm^2): 65% | Growth inhibition rate, Post-emergence treatment, Setaria glauca (L.) Beauv. ([2]; dose 37.5 g a.i./hm^2): 75% | Growth inhibition rate, Post-emergence treatment, Setaria glauca (L.) Beauv. ([2]; dose 150 g a.i./hm^2): 90% | Growth inhibition rate, Post-emergence treatment, Setaria glauca (L.) Beauv. ([2]; dose 600 g a.i./hm^2): 100% | Growth inhibition rate, Pre-emergence treatment, Setaria glauca (L.) Beauv. ([2]; dose 37.5 g a.i./hm^2): 0% | Growth inhibition rate, Pre-emergence treatment, Setaria glauca (L.) Beauv. ([2]; dose 150 g a.i./hm^2): 10% | Growth inhibition rate, Pre-emergence treatment, Setaria glauca (L.) Beauv. ([2]; dose 600 g a.i./hm^2): 20% | Growth inhibition rate, Post-emergence treatment, Zinnia elegans Jacq. (Zinnia elegans Jacq.; dose 37.5 g a.i./hm^2): 100% | Growth inhibition rate, Post-emergence treatment, Zinnia elegans Jacq. (Zinnia elegans Jacq.; dose 150 g a.i./hm^2): 100% | Growth inhibition rate, Post-emergence treatment, Zinnia elegans Jacq. (Zinnia elegans Jacq.; dose 600 g a.i./hm^2): 100% | Growth inhibition rate, Pre-emergence treatment, Zinnia elegans Jacq. (Zinnia elegans Jacq.; dose 37.5 g a.i./hm^2): 0% | Growth inhibition rate, Pre-emergence treatment, Zinnia elegans Jacq. (Zinnia elegans Jacq.; dose 150 g a.i./hm^2): 10% | Growth inhibition rate, Pre-emergence treatment, Zinnia elegans Jacq. (Zinnia elegans Jacq.; dose 600 g a.i./hm^2): 35% | Growth inhibition rate, Post-emergence treatment, Echinochloa crus-galli (L.) Beauv. ([3]; dose 37.5 g a.i./hm^2): 70% | Growth inhibition rate, Post-emergence treatment, Echinochloa crus-galli (L.) Beauv. ([3]; dose 150 g a.i./hm^2): 80% | Growth inhibition rate, Post-emergence treatment, Echinochloa crus-galli (L.) Beauv. ([3]; dose 600 g a.i./hm^2): 100% | Growth inhibition rate, Pre-emergence treatment, Echinochloa crus-galli (L.) Beauv. ([3]; dose 37.5 g a.i./hm^2): 0% | Growth inhibition rate, Pre-emergence treatment, Echinochloa crus-galli (L.) Beauv. ([3]; dose 150 g a.i./hm^2): 10% | Growth inhibition rate, Pre-emergence treatment, Echinochloa crus-galli (L.) Beauv. ([3]; dose 600 g a.i./hm^2): 20% | pre-emergence and post-emergence herbicidal activity against broad-leaf weeds and grass weeds [4]: good

CC(C)COC(=O)C1(C)CC(c2cc(-n3c(=O)cc(C(F)(F)F)n(C)c3=O)c(F)cc2Cl)=NO1 (stereo not shown) [Compound 397]
Growth inhibition rate, Post-emergence treatment, Abutilon theophrasti Medic. ([1]; dose 7.5 g a.i./hm^2): 98% | Growth inhibition rate, Post-emergence treatment, Abutilon theophrasti Medic. ([1]; dose 15 g a.i./hm^2): 100% | Growth inhibition rate, Post-emergence treatment, Abutilon theophrasti Medic. ([1]; dose 30.0 g a.i./hm^2): 100% | Growth inhibition rate, Post-emergence treatment, Abutilon theophrasti Medic. ([1]; dose 60.0 g a.i./hm^2): 100% | Growth inhibition rate, Post-emergence treatment, Abutilon theophrasti Medic. ([1]; dose 120.0 g a.i./hm^2): 100% | Growth inhibition rate, Post-emergence treatment, Setaria glauca (L.) Beauv. ([2]; dose 7.5 g a.i./hm^2): 55% | Growth inhibition rate, Post-emergence treatment, Setaria glauca (L.) Beauv. ([2]; dose 15 g a.i./hm^2): 75% | Growth inhibition rate, Post-emergence treatment, Setaria glauca (L.) Beauv. ([2]; dose 30.0 g a.i./hm^2): 85% | Growth inhibition rate, Post-emergence treatment, Setaria glauca (L.) Beauv. ([2]; dose 60.0 g a.i./hm^2): 100% | Growth inhibition rate, Post-emergence treatment, Setaria glauca (L.) Beauv. ([2]; dose 120.0 g a.i./hm^2): 100% | Growth inhibition rate, Post-emergence treatment, Zinnia elegans Jacq. (Zinnia elegans Jacq.; dose 7.5 g a.i./hm^2): 60% | Growth inhibition rate, Post-emergence treatment, Zinnia elegans Jacq. (Zinnia elegans Jacq.; dose 15 g a.i./hm^2): 85% | Growth inhibition rate, Post-emergence treatment, Zinnia elegans Jacq. (Zinnia elegans Jacq.; dose 30.0 g a.i./hm^2): 95% | Growth inhibition rate, Post-emergence treatment, Zinnia elegans Jacq. (Zinnia elegans Jacq.; dose 60.0 g a.i./hm^2): 100% | Growth inhibition rate, Post-emergence treatment, Zinnia elegans Jacq. (Zinnia elegans Jacq.; dose 120.0 g a.i./hm^2): 100% | Growth inhibition rate, Post-emergence treatment, Echinochloa crus-galli (L.) Beauv. ([3]; dose 7.5 g a.i./hm^2): 45% | Growth inhibition rate, Post-emergence treatment, Echinochloa crus-galli (L.) Beauv. ([3]; dose 15 g a.i./hm^2): 65% | Growth inhibition rate, Post-emergence treatment, Echinochloa crus-galli (L.) Beauv. ([3]; dose 30.0 g a.i./hm^2): 100% | Growth inhibition rate, Post-emergence treatment, Echinochloa crus-galli (L.) Beauv. ([3]; dose 60.0 g a.i./hm^2): 100% | Growth inhibition rate, Post-emergence treatment, Echinochloa crus-galli (L.) Beauv. ([3]; dose 120.0 g a.i./hm^2): 100% | pre-emergence and post-emergence herbicidal activity against broad-leaf weeds and grass weeds [4]: good

COCCOC(=O)C1(C)CC(c2cc(-n3c(=O)cc(C(F)(F)F)n(C)c3=O)c(F)cc2Cl)=NO1 (stereo not shown) [Compound 16]
Growth inhibition rate, Post-emergence treatment, Abutilon theophrasti Medic. ([1]; dose 7.5 g a.i./hm^2): 75% | Growth inhibition rate, Post-emergence treatment, Abutilon theophrasti Medic. ([1]; dose 15 g a.i./hm^2): 98% | Growth inhibition rate, Post-emergence treatment, Abutilon theophrasti Medic. ([1]; dose 30.0 g a.i./hm^2): 100% | Growth inhibition rate, Post-emergence treatment, Abutilon theophrasti Medic. ([1]; dose 60.0 g a.i./hm^2): 100% | Growth inhibition rate, Post-emergence treatment, Abutilon theophrasti Medic. ([1]; dose 120.0 g a.i./hm^2): 100% | Growth inhibition rate, Post-emergence treatment, Setaria glauca (L.) Beauv. ([2]; dose 7.5 g a.i./hm^2): 75% | Growth inhibition rate, Post-emergence treatment, Setaria glauca (L.) Beauv. ([2]; dose 15 g a.i./hm^2): 98% | Growth inhibition rate, Post-emergence treatment, Setaria glauca (L.) Beauv. ([2]; dose 30.0 g a.i./hm^2): 100% | Growth inhibition rate, Post-emergence treatment, Setaria glauca (L.) Beauv. ([2]; dose 60.0 g a.i./hm^2): 100% | Growth inhibition rate, Post-emergence treatment, Setaria glauca (L.) Beauv. ([2]; dose 120.0 g a.i./hm^2): 100% | Growth inhibition rate, Post-emergence treatment, Zinnia elegans Jacq. (Zinnia elegans Jacq.; dose 7.5 g a.i./hm^2): 98% | Growth inhibition rate, Post-emergence treatment, Zinnia elegans Jacq. (Zinnia elegans Jacq.; dose 15 g a.i./hm^2): 100% | Growth inhibition rate, Post-emergence treatment, Zinnia elegans Jacq. (Zinnia elegans Jacq.; dose 30.0 g a.i./hm^2): 100% | Growth inhibition rate, Post-emergence treatment, Zinnia elegans Jacq. (Zinnia elegans Jacq.; dose 60.0 g a.i./hm^2): 100% | Growth inhibition rate, Post-emergence treatment, Zinnia elegans Jacq. (Zinnia elegans Jacq.; dose 120.0 g a.i./hm^2): 100% | Growth inhibition rate, Post-emergence treatment, Echinochloa crus-galli (L.) Beauv. ([3]; dose 7.5 g a.i./hm^2): 50% | Growth inhibition rate, Post-emergence treatment, Echinochloa crus-galli (L.) Beauv. ([3]; dose 15 g a.i./hm^2): 80% | Growth inhibition rate, Post-emergence treatment, Echinochloa crus-galli (L.) Beauv. ([3]; dose 30.0 g a.i./hm^2): 100% | Growth inhibition rate, Post-emergence treatment, Echinochloa crus-galli (L.) Beauv. ([3]; dose 60.0 g a.i./hm^2): 100% | Growth inhibition rate, Post-emergence treatment, Echinochloa crus-galli (L.) Beauv. ([3]; dose 120.0 g a.i./hm^2): 100% | pre-emergence and post-emergence herbicidal activity against broad-leaf weeds and grass weeds [4]: good
